Assay results reported in patent US20070166710A1, “Methods for inhibiting adipogenesis and for treating type 2 diabetes” (priority 2003, published 2007).

Tests used:
[1] = tested on: endogenous Foxa-2 activity in HepG2 cells; assay: Endogenous Foxa-2 activity in HepG2 cells transfected with reporter construct alone; format: cell-based
Protocol: Transfections and Transactivation assay. HepG2 cells were grown to 60-70% confluence in a 24-well dish and transfected with 50 ng of each reporter gene (p6xCdx-TkLuc or pPEPCK-Luc), pCMV-β-Gal as internal reference and the expression vectors for wildtype or mutant Foxa-1 and Foxa-2 and human Akt1/Akt2 using the transfection reagent Fugene6 (Roche). Cells were grown for 48 hours and luciferase activity was measured using the Luciferase Detection System (Promega). Luciferase was normalized for transfection efficiency by β-galactosidase activity. […] To determine whether insulin decreases endogenous Foxa-2 activity in HepG2 cells, cells were transfected with the reporter construct alone and Foxa-2 activity was measured after stimulation with insulin and PI3-kinase or MAPKK1 inhibitors. […] This decrease in activity was ablated when cells were coincubated with Ly294002 but not with PD98059 (FIG. 10b).

[2] = tested on: Pref-1, Hk-2, m2Pk, Glut-4 and Ucp-2/3; assay: Expression of putative Foxa-2 target genes in primary adipocytes cultured with insulin; format: cell-based, mice; conditions: 100 nM insulin for 60 hours vs untreated adipocytes
Foxa-1, 2 and 3 = assay: Expression levels of Foxa-1, 2 and 3 in primary hepatocytes (RT-PCR); format: cell-based; conditions: insulin-treated cells
Fxr = Fxr expression in primary adipocytes of lean mice cultured with insulin; format: cell-based; conditions: insulin 50 nM, 60 hours
Foxa-2 [3] = assay: Intracellular localization of Foxa-2 in hepatocytes after insulin injection into the portal vein; format: in vivo, mice
Protocol: Cryosections of livers ([…]) were fixed for 15 min at RT with 4% paraformaldehyde. For immunofluorescent detection of Foxa-2 or HA-Foxa-2, fixed sections were incubated with either anti-Foxa-2 antibody (1:100) or anti-HA antibody (Convance) (1:1000) overnight at 4° C. After washing, sections were treated with secondary antibody linked to Alexa Fluor 488 (Molecular Probes). For nuclear counterstaining, TOPRO-3 dye (Molecular Probes) was used. Immunofluorescent staining was visualized using laser-scanning micrsocopy.
The role of Foxa-2 in the regulation of liver gene expression by nutritional status was examined by determining the intracellular localization of Foxa-2 in fasted and fed mice by Western blotting of Foxa-2 in liver nuclear extracts and by immunohistochemistry. In fed mice, nuclear Foxa-2 levels were low, whereas after an overnight fast Foxa-2 expression in liver nuclei increased ^˜4 to 5-fold (FIG. 15a). […] Strong Foxa-2 immunostaining was detected in hepatocyte nuclei of control (PBS) mice. […] Foxa-2 protein levels were measured in liver nuclei of C57/B6 mice that were perfused with a buffer containing a range of insulin concentrations that included fasting and postprandial insulin levels (0.2 and 4.0 ng/ml, respectively). […] Foxa-2 levels were determined by immunoblotting. […]

Foxa-2 [4] = assay: Nuclear Foxa-2 in perfused livers, immunoblotting; format: in vivo, mice
Foxa-2 expression = Foxa-2 expression in primary adipocytes from lean wildtype C57B6 mice, semiquantitative RT-PCR; format: cell-based; conditions: insulin 100 nM, 60 hours
Protocol: Total RNA was extracted from cells and EBs using Trizol following manufacturer's instructions (Life Technologies, Inc.). […] The cDNAs provided templates for polymerase chain reactions (PCRs) using specific primers at annealing temperatures ranging between 60 and 65° C. in the presence of dNTPs, [α^-32P]dCTP, and Taq DNA polymerase. […] Primary adipocytes were isolated as described by Rodbell (1964) J. Biol. Chem. 239:375-380. […] (1995) J. Cell. Biochem. 58:435-463. The reaction was stopped by spinning through dinonyl […] oil and the radioactivity quantified by scintillation counting. […] (1995) Am. J. Physiol. 268:[…]-[…]. Fatty acid de novo synthesis was analyzed by saponification of total lipids as described by […] et al. (1978) J. […] Incorporation into lipid glycerol was calculated by subtracting fatty acid radioactive label from total lipid radioactive label. Primary adipocytes were isolated from lean wildtype C57B6 mice and cultured in MEM medium (control) or in the presence of insulin (100 nM; 24 hours and 60 hours, respectively) or rosiglitazone (50 μM), WY14,643 (100 μM), dexametason (1 μM), leptin (100 ng/ml), TNF-α (5 ng/ml), adiponectin (500 ng/ml) and glucagons (100 nM) for 60 hours. Gene expression was measured by semiquantitative RT-PCR. Steady state mRNA levels of Hprt were used as a control and indicate that each lane contains similar amounts of mRNA. Reactions were also assayed in the absence of reverse transcriptase, showing that mRNA was not contaminated with genomic DNA.

insulin: Insulin was from Sigma; hormone used as stimulus
decrease of Foxa-2 activity ([1]; 500 nM insulin): 80%
Foxa-2 activity, dose dependence ([1]; insulin stimulation): dose-dependent decrease
expression of Pref-1, Hk-2, m2Pk, Glut-4 and Ucp-2/3 [2]: upregulation
expression levels of Foxa-1, 2 and 3 (Foxa-1, 2 and 3): did not significantly change
Fxr expression (Fxr): induced
nuclei from which Foxa-2 was excluded (Foxa-2 [3]; 20 ng/ml insulin into the portal vein of fasted mice, after 5 minutes): ~80%
localization of Foxa-2 in hepatocytes (Foxa-2 [3]; 15 minutes after insulin administration): located exclusively in the cytoplasm of all hepatocytes
increase in nuclear Foxa-2 levels (Foxa-2 [4]; in response to insulin stimulation, within 5-20 minutes): > 20 fold
change in nuclear Foxa-2 expression (Foxa-2 [4]; livers exposed to low (fasting) vs high (postprandial) insulin levels): > 20 fold
nuclear Foxa-2 level (Foxa-2 [4]; perfusion with 2.0 ng/ml insulin, 20 minutes): barely detectable levels
Foxa-2 expression (Foxa-2 expression): strong induction
